Data taken from the supplement of paper PMC5908809.

What was measured:
[1] = test system: normal NK cells expanded with K562-aAPC; assay: drug sensitivity score (DSS) (DSS units); higher = more sensitive; extreme values may be limits of the assay; conditions: 72 h; IL-2 2.5 ng/mL
Experimental: (§1)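 Drug sensitivity and resistance testing on K562-aAPC-expanded normal NK cells: 5 concentrations (10-fold steps over a 10,000-fold range), 72 h at 37 °C, viability by CellTiter-Glo normalised to DMSO and benzethonium chloride controls; DSS from the fitted curve.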

[2] = test system: normal NK cells expanded with K562-aAPC; assay: percent inhibition of viability; higher = more inhibition; conditions: 72 h, IL-2 2.5 ng/mL
Experimental: as §1

[3] = test system: NK-YS (IL-2 2.5 ng/mL); assay: drug sensitivity score (DSS) (DSS units); higher = more sensitive; extreme values may be limits of the assay; conditions: 72 h
[4] = test system: normal primary NK cells, pool 2 (3 donors) (IL-2 2.5 ng/mL); assay: as above; conditions: 72 h
[5] = test system: normal primary NK cells, pool 1 (3 donors) (IL-2 2.5 ng/mL); assay: as above; conditions: 72 h
[6] = test system: SNK-6 (IL-2 2.5 ng/mL); assay: as above; conditions: 72 h
[7] = test system: KHYG-1 (IL-2 2.5 ng/mL); assay: as above; conditions: 72 h
[8] = test system: DERL-7 (IL-2 2.5 ng/mL); assay: as above; conditions: 72 h
[9] = test system: normal primary NK cells, pool 3 (3 donors) (IL-2 2.5 ng/mL); assay: as above; conditions: 72 h
[10] = test system: NKL (IL-2 2.5 ng/mL); assay: as above; conditions: 72 h
[11] = test system: normal primary NK cells, pool 1 (3 donors), resting (IL-2 0 ng/mL); assay: as above; conditions: 72 h
[12] = test system: KAI3 (IL-2 2.5 ng/mL); assay: as above; conditions: 72 h
[13] = test system: YT (IL-2 2.5 ng/mL); assay: as above; conditions: 72 h
[14] = test system: NK-92 (IL-2 2.5 ng/mL); assay: as above; conditions: 72 h
[15] = test system: IMC-1 (IL-2 20 ng/mL); assay: as above; conditions: 72 h
[16] = test system: NK-YS (IL-2 2.5 ng/mL); assay: percent inhibition of viability; higher = more inhibition; conditions: 72 h
[17] = test system: normal primary NK cells, pool 2 (3 donors) (IL-2 2.5 ng/mL); assay: as above; conditions: 72 h
[18] = test system: normal primary NK cells, pool 1 (3 donors) (IL-2 2.5 ng/mL); assay: as above; conditions: 72 h
[19] = test system: SNK-6 (IL-2 2.5 ng/mL); assay: as above; conditions: 72 h
[20] = test system: KHYG-1 (IL-2 2.5 ng/mL); assay: as above; conditions: 72 h
[21] = test system: DERL-7 (IL-2 2.5 ng/mL); assay: as above; conditions: 72 h
[22] = test system: normal primary NK cells, pool 3 (3 donors) (IL-2 2.5 ng/mL); assay: as above; conditions: 72 h
[23] = test system: NKL (IL-2 2.5 ng/mL); assay: as above; conditions: 72 h
[24] = test system: normal primary NK cells, pool 1 (3 donors), resting (IL-2 0 ng/mL); assay: as above; conditions: 72 h
[25] = test system: KAI3 (IL-2 2.5 ng/mL); assay: as above; conditions: 72 h
[26] = test system: YT (IL-2 2.5 ng/mL); assay: as above; conditions: 72 h
[27] = test system: NK-92 (IL-2 2.5 ng/mL); assay: as above; conditions: 72 h
[28] = test system: IMC-1 (IL-2 20 ng/mL); assay: as above; conditions: 72 h

CNC(=O)c1ccc(N2C(=S)N(c3ccc(C#N)c(C(F)(F)F)c3)C(=O)C23CCC3)cc1F [RD162] (max concentration tested 10000 nM)
Conditions | drug sensitivity score
[1] | 0
[3] | 0.56
[4] | 0.09
[5] | 0.72
[6] | 0
[7] | 0.01
[8] | 0
[9] | 0
[10] | 1.84
[11] | 5.08
[12] | 0.52
[13] | 1.51
[14] | 1.56
[15] | 0.76

percent inhibition of viability [%]
Conditions | 1 nM | 10 nM | 100 nM | 1000 nM | 10000 nM
[2] | -8.24 | -9.67 | -4.97 | 7.5 | 1.43
[16] | -12.1 | -6.94 | -9.33 | 1.8 | 16.9
[17] | -7.24 | -1.28 | 0.84 | 3.39 | 11.3
[18] | -2.22 | 4.97 | 8.69 | 3.69 | 20.8
[19] | -1.99 | -21.8 | 2.57 | -8.56 | 1.37
[20] | -6.85 | -6.64 | -5.8 | 2.74 | 10.4
[21] | 2.54 | -3.32 | -8.09 | -8.58 | -5.45
[22] | -4.05 | -1.08 | 1.71 | -2.99 | 3.64
[23] | -11.3 | -5.72 | -0.58 | 7.33 | 23.9
[24] | 1.38 | 18.7 | 13.6 | 12.9 | 40.5
[25] | -2.44 | -0.44 | 1.83 | 0.32 | 18.6
[26] | -8.11 | -4.09 | -6.39 | 3.85 | 24.7
[27] | -11.3 | 5.25 | -15.2 | -0.07 | 33.8
[28] | -5.69 | -2.87 | -1.68 | 2.9 | 17.6

N#CC[C@H](C1CCCC1)n1cc(-c2ncnc3[nH]ccc23)cn1 [Ruxolitinib] (max concentration tested 10000 nM)
Conditions | drug sensitivity score
[1] | 26.7
[3] | 19.8
[4] | 19.8
[5] | 18.5
[6] | 25.9
[7] | 32.2
[8] | 27.1
[9] | 18
[10] | 32.6
[11] | 0.6
[12] | 32.2
[13] | 17.8
[14] | 25.6
[15] | 12.6

percent inhibition of viability [%]
Conditions | 1 nM | 10 nM | 100 nM | 1000 nM | 10000 nM
[2] | 2.08 | 18.6 | 65.1 | 97.8 | 98.6
[16] | 3.29 | 10.2 | 48.2 | 68.6 | 84.1
[17] | -1.35 | 14.5 | 50.1 | 65 | 71.7
[18] | 2.57 | 6.3 | 49.3 | 58 | 74.3
[19] | 7.33 | 12.7 | 73.5 | 73.9 | 85.4
[20] | 7.19 | 19.2 | 94.1 | 108 | 108
[21] | 9.24 | 20.8 | 64.2 | 101 | 101
[22] | 3.79 | 6.55 | 43 | 64.5 | 74.2
[23] | -1.94 | 49.5 | 75.1 | 94.7 | 101
[24] | 7.5 | -6.83 | 11.8 | -24.4 | 27.4
[25] | 18.2 | 33.2 | 84.8 | 97.7 | 101
[26] | 9.67 | 13.1 | 30.9 | 75.8 | 84.3
[27] | 14.7 | 23.2 | 54.9 | 93.3 | 105
[28] | 1.77 | -5.31 | 5.62 | 58.7 | 99.6
